Data on eight compounds can be found in ChEMBL document CHEMBL1201862, “PubChem BioAssay data set” (2004).

What all share (test): growth of human tumour cells (NCI), 48 h
In test [1] the test system is SNB-75.
The subject of test [2] is HCT-15.
For test [3], the system named is DU-145.
In test [4] the test system is SN12C.
Test [5] concerns HOP-62.
Test [6] concerns CAKI-1.
The test system of test [7] is MDA-MB-231.
In test [8] the test system is IGROV-1.
In test [9] the test system is SNB-19.
Test [10] deals with EKVX.
Test [11] relates to A498.
For test [12], the system named is SK-MEL-2.
Test [13] has as its system SR.
The test system of test [14] is NCI-H460.
For test [15], the system named is HL-60.
Test [16] relates to HCC 2998.
In test [17] the test system is T47D.
The test system of test [18] is OVCAR-3.
For test [19], the system named is MDA-MB-435.
The subject of test [20] is RPMI-8226.

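96-well plates; 48 h exposure; 5 concentrations. Endpoints by linear interpolation between flanking doses. Not reached: highest tested concentration assigned. GI50 marks 50% less growth.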 Activity calls are given as the source filed them. Cut-off read from the data, not from the text of the source: active = GI50 up to about 1.1 µM and inactive = higher.

Consider `O=C(Nc1ccc(Br)c2ccccc12)c1ccc2ccccc2c1O`, for which the GI50 in test [1] was 2.3 µM (inactive); in test [2], 2.26 µM; in [3], 3.89 µM (inactive); in test [4] it was 3.39 µM (inactive); in [5], 2.32 µM (inactive); in test [6], 3.95 µM (inactive). For the same compound, the GI50 in test [7] is 3.27 µM (inactive); in [8], 2.9 µM (inactive); in test [9], 4.17 µM (inactive); in test [10], 3.13 µM (inactive); in test [11], 2.52 µM (inactive); in test [12], 0.597 µM (active). Besides, the GI50 was 6.44 µM (inactive) in test [13]; 2.23 µM (inactive) in test [14]; 3.64 µM (inactive) in test [15]; 5.64 µM (inactive) in test [16]; 1.73 µM (inactive) in test [17]; 3.37 µM (inactive) in test [18].
On to `Cn1c(COC(=O)Nc2ccccc2)c(COC(=O)Nc2ccccc2)c2ccc3cc(Cl)c(Cl)cc3c21`, for which the GI50 is 7.87 µM (inactive) in test [19]; 8.53 µM (inactive) in test [1]; 4.4 µM in test [2]; 11.3 µM (inactive) in test [3]; 4.07 µM (inactive) in test [4]; 1.06 µM (active) in test [6]. The GI50 in test [7] is 3.33 µM (inactive); in [8], 8.95 µM (inactive); in test [9] it was 4.24 µM (inactive); in test [10], 15.9 µM (inactive); in test [11] it was 1.65 µM (inactive); in [12], 4.31 µM (inactive). In addition, the GI50 was 8.2 µM (inactive) in test [14]; 2.46 µM (inactive) in test [15]; 5.5 µM (inactive) in test [16]; 1.53 µM (inactive) in test [17]; 11 µM (inactive) in [18].
As to `C[C@@H]1OC(=O)C[C@H]2CC(=O)N(CCc3cn(S(=O)(=O)C(F)(F)F)c4ccccc34)C[C@@H]21`, the GI50 in [19] is > 100 µM (inactive); in [1], > 100 µM (inactive); in [2], above 100 µM; in test [3], > 100 µM (inactive); in [5], > 100 µM (inactive); in [6], > 100 µM (inactive). For the same compound, the GI50 in [7], in test [8], in test [20], in test [9], in test [10] and in [11] was > 100 µM (inactive) in each case. Besides, the GI50 in test [12], in test [14], in test [16], in test [17] and in [18] was > 100 µM (inactive) in each case.
For the compound `CCOC(=O)c1c(NC(=O)c2ccccc2)sc2c1CCCC2`, the GI50 was > 100 µM (inactive) in test [19]; 7.23 µM (inactive) in test [1]; above 100 µM in test [2]; > 100 µM (inactive) in test [3]; > 100 µM (inactive) in test [4]; > 100 µM (inactive) in test [6]. For the same compound, the GI50 in test [7] was 81.7 µM (inactive); in test [8], > 100 µM (inactive); in test [20], > 100 µM (inactive); in test [9], > 100 µM (inactive); in test [10], > 100 µM (inactive); in [11], > 100 µM (inactive). The GI50 in [12], in [15], in [17] and in test [18] was > 100 µM (inactive) in each case.
`O=C(Nc1ccc(Cl)cc1)NS(=O)(=O)c1c(-c2ccccc2)oc2ccccc2c1=O`: the GI50 was 75 µM (inactive) in [19]; > 100 µM (inactive) in [1]; 50.6 µM in test [2]; 27.9 µM (inactive) in test [3]; > 100 µM (inactive) in [4]; 71.6 µM (inactive) in [5]. Moreover, the GI50 in [6] was 52.1 µM (inactive); in test [8], 83 µM (inactive); in test [20], 58.9 µM (inactive); in test [9] it was > 100 µM (inactive); in test [10], > 100 µM (inactive); in test [11], 33 µM (inactive). Besides, the GI50 is 45.2 µM (inactive) in test [12]; 24.2 µM (inactive) in test [13]; 47.4 µM (inactive) in test [14]; 61.7 µM (inactive) in [15]; 54.2 µM (inactive) in test [16]; 48 µM (inactive) in test [17].
`O=c1c2c(-c3ccccc3)onc2n(-c2ccccc2)c(=O)n1-c1ccccc1`: the GI50 in test [19] is > 100 µM (inactive); in test [1], 27.8 µM (inactive); in test [2] it was 15.8 µM; in test [4] it was > 100 µM (inactive); in test [5], 21.8 µM (inactive); in [6] it was > 100 µM (inactive). Further, the GI50 in test [7] is > 100 µM (inactive); in test [8] it was 22.5 µM (inactive); in [20] it was > 100 µM (inactive); in test [9], 27.4 µM (inactive); in [10], 20.3 µM (inactive); in test [11] it was > 100 µM (inactive). For the same compound, the GI50 is 11 µM (inactive) in test [12]; > 100 µM (inactive) in test [13]; 17.9 µM (inactive) in test [14]; 18.2 µM (inactive) in [16]; > 100 µM (inactive) in test [17]; 15.1 µM (inactive) in test [18].
As for `COc1cc(C2=NNC(=O)c3ccccc3N2c2nc(-c3cccs3)nc3ccc(Br)cc23)cc(OC)c1OC`, the GI50 in [19] is 6.82 µM (inactive); in test [1], 55 µM (inactive); in [2] it was 4.38 µM; in test [3] it was 14.7 µM (inactive); in [4], 18.9 µM (inactive); in test [5] it was 15.6 µM (inactive). Besides, the GI50 was 15.3 µM (inactive) in test [6]; 17.9 µM (inactive) in test [7]; 10.8 µM (inactive) in [8]; 2.42 µM (inactive) in test [20]; 22.6 µM (inactive) in test [9]; 13 µM (inactive) in test [10]. Also, the GI50 was 34.8 µM (inactive) in [11]; 31.2 µM (inactive) in test [12]; 2.91 µM (inactive) in test [14]; 15.1 µM (inactive) in test [17]; 5.4 µM (inactive) in test [18].
As to `COC(=O)c1cc(-c2c[nH]cc2C(=O)OCc2ccccc2)cn1S(=O)(=O)c1ccc(C)cc1`, the GI50 in [1] was > 100 µM (inactive); in test [2], above 100 µM; in [3], > 100 µM (inactive); in test [4] it was > 100 µM (inactive); in [5], > 100 µM (inactive); in test [6], > 100 µM (inactive). Besides, the GI50 in test [7] is > 100 µM (inactive); in [8], > 100 µM (inactive); in test [9], > 100 µM (inactive); in test [10], 8.89 µM (inactive); in test [11], > 100 µM (inactive); in test [12] it was > 100 µM (inactive). Moreover, the GI50 in test [13] is > 100 µM (inactive); in test [14] it was 57.3 µM (inactive); in test [16] it was > 100 µM (inactive); in test [17], 4.71 µM (inactive); in [18], > 100 µM (inactive).
